ChEMBL document CHEMBL3045270, “Synthesis and Fungicidal Activities of Heterocyclic Compounds Having -Methoxyimino-2-phenoxymethylbenzyl Group” (2000)

Columns and labels:
Type in all cases: functional
[1] = system: Botrytis cinerea; assay: Fungicidal activity against Botryotinia fuckeliana infected cucumber plant at 500 ppm by foliar application
[2] = system: Podosphaera fuliginea; assay: Fungicidal activity against Podosphaera fuliginea infected cucumber plant at 7.8 ppm by foliar application
[3] = system: Botrytis cinerea; assay: Fungicidal activity against Botryotinia fuckeliana infected cucumber plant at 7.8 ppm by foliar application
[4] = system: Botrytis cinerea; assay: Preventive fungicidal activity against Botryotinia fuckeliana infected cucumber plant at 7.8 ppm by foliar application
[5] = system: Podosphaera fuliginea; assay: Preventive fungicidal activity against Podosphaera fuliginea infected cucumber plant at 7.8 ppm by foliar application
[6] = system: Botrytis cinerea; assay: Preventive fungicidal activity against Botryotinia fuckeliana infected cucumber plant at 31.3 ppm by foliar application
[7] = system: Podosphaera fuliginea; assay: Curative fungicidal activity against Podosphaera fuliginea infected cucumber plant at 31.3 ppm by foliar application
[8] = system: Podosphaera fuliginea; assay: Curative fungicidal activity against Podosphaera fuliginea infected cucumber plant at 7.8 ppm by foliar application
[9] = system: Podosphaera fuliginea; assay: Preventive fungicidal activity against Podosphaera fuliginea infected cucumber plant at 31.3 ppm by foliar application
[10] = system: Botrytis cinerea; assay: Curative fungicidal activity against Botryotinia fuckeliana infected cucumber plant at 7.8 ppm by foliar application
[11] = system: Botrytis cinerea; assay: Curative fungicidal activity against Botryotinia fuckeliana infected cucumber plant at 31.3 ppm by foliar application
[12] = system: Podosphaera fuliginea; assay: Fungicidal activity against Podosphaera fuliginea infected cucumber plant at 500 ppm by foliar application
[13] = system: Podosphaera fuliginea; assay: Fungicidal activity against Podosphaera fuliginea infected cucumber plant at 31.3 ppm by foliar application
[14] = system: Botrytis cinerea; assay: Fungicidal activity against Botryotinia fuckeliana infected cucumber plant at 125 ppm by foliar application
[15] = system: Podosphaera fuliginea; assay: Fungicidal activity against Podosphaera fuliginea infected cucumber plant at 125 ppm by foliar application
[16] = system: Botrytis cinerea; assay: Fungicidal activity against Botryotinia fuckeliana infected cucumber plant at 31.3 ppm by foliar application

Compound	Activity [1]	Activity [2]	Activity [12]	other results
CO/N=C(/c1nnco1)c1ccccc1COc1ccc(Cl)cc1Cl	<50%	90%	–	–
CO/N=C(\c1ccccc1COc1ccc(Cl)cc1C)c1nccn1C	–	90%	–	Activity [3]: <90%; Activity [4]: 60%; Activity [5]: 100%; Activity [6]: 55%; Activity [7]: 100%; Activity [8]: 100%; Activity [9]: 100%; Activity [10]: 55%; Activity [11]: 55%
CO/N=C(/c1ncn[nH]1)c1ccccc1COc1cc(C)ccc1C	<50%	–	<90%	–
CO/N=C(\c1ccccc1COc1cc(C)ccc1C)c1ncnn1C	<50%	–	<90%	–
CO/N=C(\c1ccccc1COc1cc(C)ccc1C)c1nnnn1C	<50%	–	<90%	–
CO/N=C(/c1ncno1)c1ccccc1COc1cc(C)ccc1C	<50%	–	<90%	–
CO/N=C(/c1ncon1)c1ccccc1COc1cc(C)ccc1C	<50%	–	–	Activity [13]: 90%
CO/N=C(/c1noc(C)n1)c1ccccc1COc1cc(C)ccc1C	<50%	–	–	Activity [13]: 90%
CO/N=C(/c1nnco1)c1ccccc1COc1cc(C)ccc1C	–	90%	–	Activity [14]: <90%
CO/N=C(/c1nnc(C)o1)c1ccccc1COc1cc(C)ccc1C	<50%	90%	–	–
CO/N=C(\c1ccccc1COc1cc(C)ccc1C)c1snnc1C	<50%	–	–	Activity [15]: 90%
CO/N=C(\c1ccccc1COc1ccccc1)c1nccn1C	<50%	–	90%	–
CO/N=C(\c1ccccc1COc1ccccc1Cl)c1nccn1C	<50%	90%	–	–
CO/N=C(\c1ccccc1COc1cccc(Cl)c1)c1nccn1C	<50%	90%	–	–
CO/N=C(\c1ccccc1COc1ccc(Cl)cc1)c1nccn1C	<50%	90%	–	–
CO/N=C(\c1ccccc1COc1ccccc1C)c1nccn1C	–	90%	–	Activity [14]: <90%
CO/N=C(\c1ccccc1COc1cccc(C)c1)c1nccn1C	<50%	–	–	Activity [15]: 90%
CO/N=C(\c1ccccc1COc1ccc(C)cc1)c1nccn1C	<50%	90%	–	–
CO/N=C(\c1ccccc1COc1ccccc1OC)c1nccn1C	<50%	–	90%	–
CO/N=C(\c1ccccc1COc1ccc(Cl)cc1Cl)c1nccn1C	<50%	90%	–	–
CO/N=C(\c1ccccc1COc1cc(Cl)ccc1Cl)c1nccn1C	<50%	90%	–	–

Compound	Activity [1]	Activity [2]	Activity [12]	other results
CO/N=C(/c1nnco1)c1ccccc1COc1ccccc1	<50%	–	–	Activity [13]: 90%
CO/N=C(/c1nnco1)c1ccccc1COc1ccccc1Cl	<50%	–	–	Activity [13]: 90%
CO/N=C(/c1nnco1)c1ccccc1COc1cccc(Cl)c1	<50%	–	–	Activity [15]: 90%
CO/N=C(/c1nnco1)c1ccccc1COc1ccc(Cl)cc1	<50%	–	90%	–
CO/N=C(/c1nnco1)c1ccccc1COc1ccccc1C	–	90%	–	Activity [14]: <90%
CO/N=C(/c1nnco1)c1ccccc1COc1cccc(C)c1	<50%	–	–	Activity [15]: 90%
CO/N=C(/c1nnco1)c1ccccc1COc1ccccc1OC	<50%	–	90%	–
CO/N=C(/c1nnco1)c1ccccc1COc1cc(Cl)ccc1Cl	<50%	90%	–	–
CO/N=C(/c1nnco1)c1ccccc1COc1ccc(Cl)cc1C	–	90%	–	Activity [4]: 30%; Activity [5]: 100%; Activity [6]: 65%; Activity [7]: 100%; Activity [8]: 100%; Activity [16]: <90%; Activity [9]: 100%; Activity [10]: 30%; Activity [11]: 50%
CO/N=C(/c1ccccc1COc1ccc(Cl)cc1C)c1nccn1C	<50%	–	90%	–
CO/N=C(\c1nnco1)c1ccccc1COc1ccc(Cl)cc1C	<50%	–	–	Activity [15]: 90%
CO/N=C(/c1ccon1)c1ccccc1COc1ccc(C)cc1C	–	–	–	Activity [4]: 20%; Activity [5]: 100%; Activity [6]: 40%; Activity [7]: 100%; Activity [8]: 100%; Activity [9]: 100%; Activity [10]: 30%; Activity [11]: 30%
CON=C(c1ccco1)c1ccccc1COc1cc(C)ccc1C (mixture of isomers)	<50%	–	90%	–
CON=C(c1cccs1)c1ccccc1COc1cc(C)ccc1C (mixture of isomers)	<50%	–	<90%	–
CON=C(c1ccccc1COc1cc(C)ccc1C)c1ccnn1C (mixture of isomers)	<50%	–	<90%	–
CON=C(c1ccccc1COc1cc(C)ccc1C)c1nccn1C (mixture of isomers)	–	90%	–	Activity [16]: <90%
CON=C(c1cnco1)c1ccccc1COc1cc(C)ccc1C (mixture of isomers)	<50%	–	90%	–
CON=C(c1nccs1)c1ccccc1COc1cc(C)ccc1C (mixture of isomers)	<50%	–	<90%	–
CON=C(c1cc(C)ns1)c1ccccc1COc1cc(C)ccc1C (mixture of isomers)	<50%	–	<90%	–
CNC(=O)/C(=N/OC)c1ccccc1Oc1ccccc1 [METOMINOSTROBIN]	–	–	–	Activity [4]: 30%; Activity [5]: 70%; Activity [6]: 55%; Activity [7]: 97%; Activity [8]: 70%; Activity [9]: 100%; Activity [10]: 30%; Activity [11]: 40%
